Ki data for two compounds are collected here from ChEMBL document CHEMBL3593236, “Cloning, characterization and anion inhibition studies of a new γ-carbonic anhydrase from the Antarctic bacterium Pseudoalteromonas haloplanktis” (Bioorg Med Chem, 2015).

The assay deals with T1, Carbonic anhydrase (Methanosarcina thermophila, UniProt P40881).
T1 sequence (P40881 whole entry): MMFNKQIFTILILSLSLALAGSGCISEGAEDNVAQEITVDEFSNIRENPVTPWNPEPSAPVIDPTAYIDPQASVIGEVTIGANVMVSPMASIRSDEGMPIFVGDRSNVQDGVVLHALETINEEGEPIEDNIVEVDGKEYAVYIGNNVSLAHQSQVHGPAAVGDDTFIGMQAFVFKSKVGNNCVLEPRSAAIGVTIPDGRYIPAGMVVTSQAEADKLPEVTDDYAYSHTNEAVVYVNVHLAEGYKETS

The structures appear in SMILES notation.

Description: Inhibition of archaeon Methanosarcina thermophila gamma-CA after 15 mins by stopped-flow/Co2 hydration assay

As a reminder, the Ki is a dissociation constant, usually derived from enzyme kinetics or from competition with a known ligand. Read a low Ki as higher affinity. `[Br-].[Na+]` [SODIUM BROMIDE] showed an inhibition constant Ki of 160 mM.

In the case of `N#C[S-].[Na+]` [THIOCYANATE SODIUM], the inhibition constant (Ki) came out at 7 mM.
